Assay type in all cases: biochemical
The target of assay [1] is T1, JAK3 (Homo sapiens, UniProt P52333).
T1 construct: made in house; host or cells: SF9 insect cells (baculovirus)
The assay is described as follows: JAK3 inhibition (Table 4). As to conditions: read-out: JAK3 Ki.

Assay [2] deals with T2, TYK2 (Homo sapiens, UniProt P29597).
T2 construct: made in house; host or cells: SF9 insect cells (baculovirus)
T2 sequence (P29597 873-1187): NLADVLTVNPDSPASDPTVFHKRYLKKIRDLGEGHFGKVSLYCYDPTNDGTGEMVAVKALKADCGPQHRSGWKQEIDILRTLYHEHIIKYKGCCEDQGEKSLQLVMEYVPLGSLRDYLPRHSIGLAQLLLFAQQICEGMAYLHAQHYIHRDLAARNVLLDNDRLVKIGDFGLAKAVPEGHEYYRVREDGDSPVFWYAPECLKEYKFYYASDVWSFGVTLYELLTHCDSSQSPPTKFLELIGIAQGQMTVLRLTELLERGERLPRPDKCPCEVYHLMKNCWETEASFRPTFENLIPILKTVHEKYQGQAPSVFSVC
The assay is described as follows: TYK2 inhibition (Table 4).

Assay [3] deals with T3, JAK1 (Homo sapiens, UniProt P23458).
T3 construct: made in house; host or cells: SF9 insect cells (baculovirus)
T3 sequence (P23458 852-1154): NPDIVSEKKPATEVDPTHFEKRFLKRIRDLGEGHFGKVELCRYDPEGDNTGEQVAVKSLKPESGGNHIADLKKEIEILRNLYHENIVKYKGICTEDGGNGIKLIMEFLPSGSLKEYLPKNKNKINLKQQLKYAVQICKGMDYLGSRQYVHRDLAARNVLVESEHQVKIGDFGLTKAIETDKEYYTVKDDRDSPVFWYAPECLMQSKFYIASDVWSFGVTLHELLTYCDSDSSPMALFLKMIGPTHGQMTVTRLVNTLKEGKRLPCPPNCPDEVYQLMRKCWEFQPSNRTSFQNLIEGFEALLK
The assay can be described thus: JAK1 inhibition (Table 4). The settings on record: read-out: JAK1 Ki.

Assay [4] deals with T4, JAK2 (Homo sapiens, UniProt O60674).
T4 construct: made in house; host or cells: SF9 insect cells (baculovirus)
T4 sequence (O60674 812-1132): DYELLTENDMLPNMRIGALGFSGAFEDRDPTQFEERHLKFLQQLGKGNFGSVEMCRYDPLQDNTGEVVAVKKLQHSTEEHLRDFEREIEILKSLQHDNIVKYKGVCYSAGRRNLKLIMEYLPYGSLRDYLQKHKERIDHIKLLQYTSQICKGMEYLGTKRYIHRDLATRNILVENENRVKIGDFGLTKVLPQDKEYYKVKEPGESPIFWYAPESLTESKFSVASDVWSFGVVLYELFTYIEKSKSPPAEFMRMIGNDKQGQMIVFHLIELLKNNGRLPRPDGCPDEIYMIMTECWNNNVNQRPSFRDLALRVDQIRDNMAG
The assay can be described thus: JAK2 inhibition (Table 4). As to conditions: read-out: JAK2 Ki.

T1 sequence (P52333 783-1124): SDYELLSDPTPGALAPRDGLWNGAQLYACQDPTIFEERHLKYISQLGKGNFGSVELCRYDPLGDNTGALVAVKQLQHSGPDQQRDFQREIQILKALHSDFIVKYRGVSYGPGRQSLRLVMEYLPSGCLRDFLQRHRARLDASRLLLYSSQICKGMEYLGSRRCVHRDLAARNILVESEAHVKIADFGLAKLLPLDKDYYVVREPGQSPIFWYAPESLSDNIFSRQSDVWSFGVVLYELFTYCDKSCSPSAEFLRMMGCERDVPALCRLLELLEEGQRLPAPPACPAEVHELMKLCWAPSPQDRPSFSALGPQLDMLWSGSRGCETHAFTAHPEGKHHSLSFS

For the compound `Cn1ccnc1CN1CCC[C@@H](n2cnc3cnc4[nH]ccc4c32)C1` [Example 44, 1-[(R)-1-(1-Methyl-1H-imidazol-2-ylmethyl)-piperidin-3-yl]-1,6-dihdyro-1,3,5,6-tetraaza-as-indacene], the Ki was 241 nM in assay [1], 423 nM in assay [2], 105 nM in assay [3] and 121 nM in assay [4].

Turning to `Cc1nc2cnc3[nH]ccc3c2n1[C@@H](C)CO` [Example 422, (S)-2-(2-Methyl-6H-1,3,5,6-tetraaza-as-indacen-1-yl)-propan-1-ol], the Ki was 310 nM in assay [1], 1230 nM in assay [2], 141 nM in assay [3] and 378 nM in assay [4].

For the compound `C[C@@H](O)c1nc2cnc3[nH]ccc3c2n1[C@H]1CC[C@H](S(C)(=O)=O)CC1` [Example 650, Trans (R)-1-[1-(4-methanesulfonyl-cyclohexyl)-1,6-dihydro-1,2,3,5,6-tetraaza-as-indacen-2-yl]-ethanol], the Ki in assay [1] was determined as 756 nM; in assay [2] it was 52 nM; in assay [3], 10.5 nM; in assay [4], 113 nM.

Take `C[C@@H](O)c1nc2cnc3[nH]ccc3c2n1C1CCCC(C#N)C1` (mixture of isomers) [Example 648, Racemic cis 3-[2-((R)-1-Hydroxy-ethyl)-6H-1,2,3,5,6-tetraaza-as-indacen-1-yl]-cyclohexanecarbonitrile]: the Ki in assay [1] worked out at 119 nM; in assay [2], 26.8 nM; in assay [3], 6.06 nM; in assay [4] it was 72.4 nM.

Regarding `Cc1nc2cnc3[nH]ccc3c2n1C1CCCCNC1` (racemic) [Example 987, 1-Azepan-3-yl-2-methyl-1,6-dihydro-1,3,5,6-tetraaza-as-indacene], the inhibition constant Ki is 643 nM in assay [1], 267 nM in assay [2], 39.7 nM in assay [3] and 208 nM in assay [4].

For `OCc1nc2cnc3[nH]ccc3c2n1C1CC2CCC1O2` (single isomer, unassigned) [Example 851, endo-[1-(7-Oxa-bicyclo[2.2.1]hept-2-yl)-1,6-dihydro-1,3,5,6-tetraaza-as-indacen-2-yl]-methanol], the Ki came to 24.4 nM in assay [1], 49.9 nM in assay [2], 25.9 nM in assay [3] and 53.3 nM in assay [4].

Consider `FC(F)c1nc2cnc3[nH]ccc3c2n1C1CCN(Cc2ccccc2)CC1` [Example 299, 1-(1-Benzyl-piperidin-4-yl)-2-difluoromethyl-1,6-dihydro-1,3,5,6-tetraaza-as-indacene], for which the Ki in assay [1] is 4.53 nM; in assay [2], 127 nM; in assay [3], 2.5 nM; in assay [4] it was 4.53 nM.

With `N#CCCN1CC[C@@H](n2cnc3cnc4[nH]ccc4c32)C1` [Example 187, 3-[(R)-3-(6H-1,2,3,5,6-Tetraaza-as-indacen-1-yl)-pyrrolidin-1-yl]-propionitrile], the Ki in assay [1] was 57.6 nM; in assay [2], 58.8 nM; in assay [3], 10.1 nM; in assay [4] it was 22.3 nM.

As for `O=C(CS(=O)(=O)c1ccccc1)N1CCC[C@@H](n2cnc3cnc4[nH]ccc4c32)C1` [Example 76, 2-Benzenesulfonyl-1-[(R)-3-(6H-1,3,5,6-tetraaza-as-indacen-1-yl)-piperidin-1-yl]ethanone], the Ki in assay [1] is 232 nM; in assay [2], 531 nM; in assay [3], 51.7 nM; in assay [4], 73 nM.

With `c1ncc(CN[C@H]2CC[C@@H](n3cnc4cnc5[nH]ccc5c43)CC2)cn1` [Example 333, Pyrimidin-5-ylmethyl-[4-(6H-1,3,5,6-tetraaza-as-indacen-1-yl)-cyclohexyl]-amine], the Ki in assay [1] came to 170 nM; in assay [2] it was 59.1 nM; in assay [3] it was 11.7 nM; in assay [4], 25.3 nM.

With `Cc1nc2cnc3[nH]ccc3c2n1[C@H]1CC[C@H](OC(=O)N(C)C)CC1` [Example 605, Trans dimethyl-carbamic acid 4-(2-methyl-6H-1,2,3,5,6-tetraaza-as-indacen-1-yl)-cyclohexyl ester], the Ki in assay [1] amounted to 152 nM; in assay [2], 129 nM; in assay [3], 15.2 nM; in assay [4] it was 43.1 nM.

For `Cc1nc2cnc3[nH]ccc3c2n1C1CCC(NC(=O)N(C)CC(F)(F)F)CC1` (stereo not shown) [Example 749, 1-methyl-3-[4-(2-methyl-6H 1,3,5,6-tetraaza-as-indacen-1-yl)-cyclohexyl]-1-(2,2,2-trifluoro-ethyl)-urea], the Ki in assay [1] was 8.96 nM; in assay [2] it was 177 nM; in assay [3], 2.83 nM; in assay [4] it was 15.8 nM.

On to `Cc1nc2cnc3[nH]ccc3c2n1C1CCc2nc[nH]c2C1` (racemic) [Example 990, 2-Methyl-1-(4,5,6,7-tetrahydro-3H-benzoimidazol-5-yl)-1,6-dihydro-1,3,5,6-tetraaza-as-indacene], for which the Ki in assay [1] was 91.9 nM; in assay [2] it was 325 nM; in assay [3], 84.6 nM; in assay [4], 204 nM.

Take `N#CCCN1CCC(n2c(CC3CCCOC3)nc3cnc4[nH]ccc4c32)CC1` (racemic) [Example 409, 3-{4-[2-(Tetrahydro-pyran-3-ylmethyl)-6H-1,3,5,6-tetraaza-as-indacen-1-yl]-piperidin-1-yl}-propionitrile]: the inhibition constant (Ki) in assay [1] was found to be 126 nM; in assay [2], 321 nM; in assay [3] it was 26.2 nM; in assay [4], 125 nM.

With `C[C@@H](O)c1nc2cnc3[nH]ccc3c2n1N1CCCCC1` [Example 882, (R)-1-(1-Piperidin-1-yl-1,6-dihydro-1,3,5,6-tetraaza-as-indacen-2-yl)-ethanol], the Ki in assay [1] is 72.6 nM; in assay [2], 10.6 nM; in assay [3], 3.56 nM; in assay [4] it was 51.6 nM.

Consider `N#Cc1ccc(CN2CCC(n3cnc4cnc5[nH]ccc5c43)CC2)cc1` [Example 48, 4-[4-(6H-1,3,5,6-Tetraaza-as-indacen-1-yl)-piperidin-1-ylmethyl]benzonitrile], for which the Ki is 8.57 nM in assay [1], 30.9 nM in assay [2], 1.3 nM in assay [3] and 2.67 nM in assay [4].

As to `CC(O)c1nc2cnc3[nH]ccc3c2n1C1CCCN(C(=O)C2CC2(F)F)C1` (stereo not shown) [Example 790, (2,2-Difluoro-cyclopropyl)-{3-[2-(1-hydroxy-ethyl)-6H-1,3,5,6-tetraaza-as-indacen-1-yl]-piperidin-1-yl}-methanone], the Ki in assay [1] worked out at 884 nM; in assay [2], 587 nM; in assay [3] it was 79.9 nM; in assay [4] it was 740 nM.

In the case of `Cc1nc2cnc3[nH]ccc3c2n1C1(C)CCN(CCC#N)CC1` [Example 581, 3-[4-Methyl-4-(2-methyl-6H-1,2,3,5,6-tetraaza-as-indacen-1-yl)-piperidin-1-yl]-propionitrile], the Ki stood at 280 nM in assay [1], 275 nM in assay [2], 26.8 nM in assay [3] and 114 nM in assay [4].

As to `O=C(CN1CCCC1=O)N1CCC(n2cnc3cnc4[nH]ccc4c32)CC1` [Example 440, 1-{2-Oxo-2-[4-(6H-1,3,5,6-tetraaza-as-indacen-1-yl)-piperidin-1-yl]-ethyl}-pyrrolidin-2-one], the Ki amounted to 844 nM in assay [1], 713 nM in assay [2], 43.2 nM in assay [3] and 115 nM in assay [4].

As a reminder, the Ki is the equilibrium dissociation constant of an inhibitor or competing ligand from its target.

The record behind these values is patent publication US8461328B2, “Tricyclic heterocyclic compounds, compositions and methods of use thereof” (Genentech, Inc., priority 2010, dated 2013).
